# Test results from PubChem BioAssay AID1996.
# Details: buffer; pH 7.4; 200.0 µM
row,SMILES,solubility kinetic [µg/mL]
1,O=C(COC(=O)c1ccc(Cl)cc1)NC(=O)NC1CCCC1,5.7
2,O=C1OC(C(=O)Nc2ccccc2)Cc2ccccc21 (stereo not drawn),10.9
3,CSc1nc(N)nc(C2CC2)n1,24.4
4,Cc1ccc(CN(CCO)CCO)cc1,29.4
5,CCN(CC(=O)NCc1cccs1)C(=O)c1cc(Br)ccc1O,> 59.6
6,CC(C)(C)/C(COc1ccccc1[N+](=O)[O-])=N/O,20.6
7,O=C(COC(=O)/C=C/c1cccc(Cl)c1)Nc1ccc(N2CCOCC2)cc1,3.2
8,Cc1ccc(C)c(NC(=O)c2ccc3nccnc3c2)c1,6.4
9,Cc1c(NC(=O)c2cc(S(=O)(=O)N3CCCCC3)ccc2Cl)c(=O)n(-c2ccccc2)n1C,> 73.3
10,CCCN=C1CC(C)(C)CC(=O)/C1=C(/O)CCC,37.5
11,CCN(c1ccccc1)S(=O)(=O)c1ccc(OC)c(NC(=O)c2cc(F)c(F)c(F)c2F)c1,0.7
12,CN1C(=O)N(c2nnc(C(C)(C)C)s2)C(=O)C1c1ccccc1 (stereo not drawn),> 49.6
13,COCc1cc(OC(=O)N(C)C)nc(-c2ccccc2)n1,> 43.1
14,Cc1cccc(NC(=O)Cn2c(=O)oc3ccccc32)c1C,6.6
15,CCOC(=O)N1CCN(CC(=O)c2ccc(O)c(C)c2O)CC1,40.7
16,COc1ccc(/C=C/c2c([N+](=O)[O-])c(=O)n(C)c(=O)n2C)cc1,3.4
17,Cc1ccc(/C=N/NC(=O)c2ccc3nc[nH]c3c2)s1,> 42.7
18,Cc1ccc(S(=O)(=O)CCc2ccncc2)cc1,> 39.2
19,Cc1cc(NC(=O)COc2cccc([N+](=O)[O-])c2)no1,2.9
20,COc1ccccc1-n1cnc2cc(NCc3ccccc3O)ccc21,12.6

row,SMILES,solubility kinetic [µg/mL]
1,Cc1nn(CC(=O)N2CCc3ccccc32)c(C)c1S(=O)(=O)NC(C)(C)C,> 58.6
2,CC(=O)Nc1nc2ccccc2[nH]1,15.1
3,O=[N+]([O-])c1cccc(S(=O)(=O)NCc2ccccn2)c1,41.2
4,O=C(COC(=O)CNC(=O)C1CCCCC1)Nc1ccccc1OC(F)F,> 57.7
5,CC(CCc1ccccc1)NC(=O)CNC(=O)c1cccs1 (stereo not drawn),> 47.5
6,Cc1onc(-c2ccccc2)c1NC(=O)N(Cc1ccccc1)C(C)C,22.7
7,CC(C)N(C(=O)Cn1cnc2cc([N+](=O)[O-])ccc2c1=O)C(C)C,> 49.9
8,CCSc1nc2sc3c(c2c(=O)[nH]1)CC(C)(C)OC3,3.1
9,CCOc1ccc(NC(=O)CNC(=O)c2ccc(OC)cc2)cc1,4.1
10,COC(=O)c1sc(C(C)(C)C)cc1CS(=O)(=O)c1ccccn1,45.2
11,N#Cc1ccccc1NC(=S)NC(=O)c1cccnc1,28.9
12,O=C(CS(=O)(=O)c1ccc(F)cc1)N1CCOCC1,> 43.1
13,O=C(COc1ccc(/C=C\[N+](=O)[O-])cc1)N1CCOCC1,31.7
14,COc1ccc(NC(=O)COC(=O)CN2C(=O)C3CC=CCC3C2=O)c([N+](=O)[O-])c1 (stereo not drawn),> 62.6
15,CSc1ccccc1NC(=O)CSc1nncs1,> 44.6
16,CCOC(=O)N1CCN(CC(=O)Nc2cc(OC)c(OC)cc2C#N)CC1,16.3
17,Cc1nc([N+](=O)[O-])c(C(=O)OCc2ccc(C#N)cc2)n1C,17.7
18,COCCCNC(=O)c1cc2c(=O)n3cccc(C)c3nc2s1,6.3
19,CC(=O)N=C1SC2CS(=O)(=O)CC2N1Cc1ccc(C)cc1 (stereo not drawn),19.7
20,CC1CCC2(CC1)NC(=O)N(CC(=O)NC1CCCCC1C)C2=O (stereo not drawn),> 50.3

row,SMILES,solubility kinetic [µg/mL]
1,CCc1nc2ccccc2c(C(=O)Nc2cccc(C)c2)c1C,2.2
2,Cc1cnc(NC(=O)COc2ccc3c(c2)CCC3)s1,1.2
3,Cc1cc([N+](=O)[O-])ccc1NC(=O)CCC(=O)N1CCCC1,> 45.8
4,Cc1noc(C)c1COc1ccc(C(=O)Nc2ccccc2)cc1,0.8
5,CCC(=O)N1CCCC(C(=O)c2ccc(-c3ccccc3)cc2)C1 (stereo not drawn),29.9
6,O=C(Cn1c(=O)oc2ccc(Cl)cc21)NC1CCCCC1,2.9
7,O=C(NCCc1csc(-c2ccccc2)n1)c1ccco1,42.4
8,CCOc1cccc2cc(C(=O)NCc3ccccc3)c(=N)oc12,2.1
9,NC(=O)Nc1ccc(C(=O)OCC(=O)NC2CCCCC2)cc1,37.5
10,N/C(Cc1nc2ccccc2s1)=N\O,29.3
11,O=C(NNC(=S)NCCCN1CCOCC1)c1ccncc1,> 48.5
12,COc1ccc(NC(=O)COCC(=O)Nc2ccc(C)cc2)cc1,44.3
13,CCCCc1ccc(NC(=O)N[C@@H](CC(C)C)C(=O)O)cc1,> 46
14,CC(C)N1CCN(Cc2ccc3nsnc3c2)CC1CCO (stereo not drawn),> 48.1
15,Cc1cnc(C(=O)OCC(=O)Nc2cc(S(=O)(=O)N3CCOCC3)ccc2Cl)cn1,> 68.2
16,CCCCNC(=O)Nc1ccc(C2SCCS2)cc1,9.9
17,Cc1ccc(NC(=S)Nc2ccc(OC(F)F)c(Cl)c2)cc1F,3.5
18,Cc1ccc(NC(=O)CN2C(=S)NC(C)(C)CC2C)cc1Cl (stereo not drawn),8.2
